Laboratory results as given in patent publication US9956181B2, “Composition of nanoformulated lycopene and method of using the composition” (priority 2015, dated 2018).

Experiments:
Assay type in all cases: in vivo, Wistar rats
[1] = tested on: ovariectomized (OVX) rats; experiment: OVX rat study: body weight, uterine weight, body composition by DXA, organ findings; conditions: 12 weeks; for decrease in fat mass (body composition by DXA): higher dosages of lycopene
Experimental: (§1) A total of 264 Wistar female rats, ˜6 months old, were supplied by the Animal House at King Fahd Medical Research Center (KFMRC), KAU. Rats were housed in individual cages and maintained at 22° C. with a 12-h light/dark cycle. During the study period, rats were given standard rodent chow diet ad libitum (commercial rat cubes containing approximately 18% protein, 3% fat, 77% carbohydrate, and 2% of an inorganic-salt mixture with a vitamin supplement by weight, supplied by Grain Silos and Flour Mills Organization, Jeddah, Saudi Arabia) and water until the onset of intervention. Prior to surgery, rats were anesthetized with ketamine [(10% ketamine hydrochloride (80 mg/kg body weight), Cayman Chemical, Michigan, USA] and xylazine [(2% xylazine hydrochloride, 10 mg/kg body weight), Sigma-Aldrich Co., St. Louis, USA]. A single longitudinal skin incision was made on the dorsal midline at the level of the kidneys and both ovaries were ligated and removed to produce an ovariectomy in all OVX group animals. A SHAM-operated group, acting as a negative control for the effect of ovariectomy on bone parameters, underwent bilateral laparotomy, during which the ovaries were exposed but remained intact. […] The lycopene-supplemented groups were given lycopene (15, 30 and 45 mg/kg body weight per day) dissolved in corn oil by daily intra-gastric administration for the experimental period of 12 weeks. The SHAM, OVX and ALN control groups were given the same volume of corn oil without lycopene treatment. […] A 12-week randomized placebo-controlled study in order to examine the protective effects of lycopene supplementation on bone mass and fragility in OVX rats was concluded. Prior to surgery, body weight and bone mineral density (BMD) were obtained for all animals. Rats were randomized using a computer-generated randomization code into one of six groups: (1) sham-operated (SHAM; n=44); (2) ovariectomized control (OVX; n=44); (3) OVX lycopene-supplemented (15 mg/kg body weight per day) (n=44); (4) OVX lycopene-supplemented (30 mg/kg body weight per day) (n=44); (5) OVX lycopene-supplemented (45 mg/kg body weight per day) (n=44) and (6) OVX alendronate-treated (ALN) [2.0 μg/kg body weight per day subcutaneously (sc)] (n=44). Alendronate is an anti-resorptive agent for the treatment of osteoporosis and was used as a positive therapy control. […] All OVX groups were pair-fed with the SHAM group throughout the study to avoid the possible effects of ovariectomy-induced over-consumption and subsequent excessive weight gain. Treatment started 1 week after the surgery: this period of rest allowed the rats to recover from the stress associated with the surgery. In addition, after surgery, rats were administered Diclofenac sodium injection (20 mg/Kg body weight) to reduce the pain associated with the surgery. Rats were weighed and examined daily. Blood and urine samples were collected at baseline, during, and at the end of treatment for measurement of various BTMs and other analytes. In vivo dual energy x-ray absorptiometry (DXA) measurements were made for the bone mineral content (BMC) and BMD of the whole body, lumbar spine (L1-L4), and the right humerus, together with body composition at 12 weeks of treatment. One day following the post-test DXA assessments (at 12 weeks, 16 rats in each group), animals were euthanized by decapitation and right and left femurs were extracted for further biomechanical and histomorphometric analyses. Blood and urine samples were collected from all experimental groups to measure biochemical analytes and BTMs at baseline and 4, 8, and 12 weeks of treatment. Peripheral Quantitative CT (pQCT) scans were made of the proximal tibia metaphysis and the diaphysis. In vivo micro-computed tomographic (μCT) scans of the proximal tibia were obtained during the treatment period to monitor changes in bone mass and microarchitecture. […]

[2] = tested on: ovariectomized (OVX) rats; experiment: OVX rat study: serum minerals, enzymes and hormones
Experimental: as §1, with “In addition, after surgery, rats were administered Diclofenac sodium injection (20 mg/Kg body weight) to reduce the pain associated with the surgery. Rats were weighed and examined daily. Blood and urine samples were collected at baseline, during, and at the end of treatment for measurement of various BTMs and other analytes. In vivo dual energy x-ray absorptiometry (DXA) measurements were made for the bone mineral content (BMC) and BMD of the whole body, lumbar spine (L1-L4), and the right humerus, together with body composition at 12 weeks of treatment. One day following the post-test DXA assessments (at 12 weeks, 16 rats in each group), animals were euthanized by decapitation and right and left femurs were extracted for further biomechanical and histomorphometric analyses. Blood and urine samples were collected from all experimental groups to measure biochemical analytes and BTMs at baseline and 4, 8, and 12 weeks of treatment.” left out, “diaphysis.” for “diaphysis. In vivo micro-computed tomographic (μCT) scans of the proximal tibia were obtained during the treatment period to monitor changes in bone mass and microarchitecture.”

[3] = tested on: ovariectomized (OVX) rats; experiment: OVX rat study: biochemical bone turnover markers
Experimental: as §1, with “In addition, after surgery, rats were administered Diclofenac sodium injection (20 mg/Kg body weight) to reduce the pain associated with the surgery. Rats were weighed and examined daily. Blood and urine samples were collected at baseline, during, and at the end of treatment for measurement of various BTMs and other analytes. In vivo dual energy x-ray absorptiometry (DXA) measurements were made for the bone mineral content (BMC) and BMD of the whole body, lumbar spine (L1-L4), and the right humerus, together with body composition at 12 weeks of treatment. One day following the post-test DXA assessments (at 12 weeks, 16 rats in each group), animals were euthanized by decapitation and right and left femurs were extracted for further biomechanical and histomorphometric analyses. Blood and urine samples were collected from all experimental groups to measure biochemical analytes and BTMs at baseline and 4, 8, and 12 weeks of treatment.” left out, “diaphysis.” for “diaphysis. In vivo micro-computed tomographic (μCT) scans of the proximal tibia were obtained during the treatment period to monitor changes in bone mass and microarchitecture.”

[4] = tested on: ovariectomized (OVX) rats; experiment: OVX rat study: ex vivo pQCT and biomechanical testing of lumbar spine and femur; conditions: 12 weeks
Experimental: as §1, with “One day following the post-test DXA assessments (at 12 weeks, 16 rats in each group), animals were euthanized by decapitation and right and left femurs were extracted for further biomechanical and histomorphometric analyses. Blood and urine samples were collected from all experimental groups to measure biochemical analytes and BTMs at baseline and 4, 8, and 12 weeks of treatment.” left out, “diaphysis.” for “diaphysis. In vivo micro-computed tomographic (μCT) scans of the proximal tibia were obtained during the treatment period to monitor changes in bone mass and microarchitecture.”

CC(C)=CCC/C(C)=C/C=C/C(C)=C/C=C/C(C)=C/C=C/C=C(C)/C=C/C=C(C)/C=C/C=C(\C)CCC=C(C)C [lycopene]
decrease in fat mass (body composition by DXA) ([1]; OVX rats, first value (presumably 30 mg/kg/day)): 8.9% | decrease in fat mass (body composition by DXA) ([1]; OVX rats, second value (presumably 45 mg/kg/day)): 16.4% | final body weight, body weight gain, or food intake ([1]; OVX rats, lycopene 15, 30, 45 mg/kg/day oral): did not significantly influence | uterine weight compared to OVX alone ([1]; OVX rats, lycopene 30 and 45 mg/kg body weight per day): significantly increased | OVX-induced body weight gain and fat accumulation ([1]; OVX rats, lycopene treatment): prevented | degeneration or hypertrophy of internal organs, including muscle and bone ([1]; lycopene-treated OVX rats): No degeneration or hypertrophy | serum E2 ([2]; OVX lycopene-treated groups, dose-dependent, P<0.001): significantly increased | elevated serum FSH and LH levels ([2]; OVX rats, lycopene treatment): attenuated | serum PTH values versus other groups ([2]; OVX rats, lycopene 45 mg/kg/day, ALN 2.0 μg/kg/day sc, P<0.001): significantly higher | s-CTX and u-DPD levels compared to OVX control ([3]; lycopene 30 and 45 mg/kg per day, P<0.001): significantly decreased | s-OC and s-PINP levels compared with OVX control ([3]; lycopene 30 or 45 mg/kg per day, weeks 8 and 12, P<0.001): significant decreases | OVX-induced decrease in cortical thickness ([4]; lycopene particularly 45 mg/kg/day, alendronate 2.0 μg/kg/day): prevented the decrease | lumbar spine biomechanical / bone strength parameters ([4]; lycopene particularly 30 and 45 mg/kg/day, ALN 2.0 μg/kg/day, P<0.05): improved | effects of OVX on bone strength parameters in the femur diaphysis ([4]; lycopene, values comparable to SHAM): prevented the negative effects
